Source: ChEMBL document CHEMBL5625252, “Synthesis of peptidomimetics as antibiotic adjuvants for combination with aztreonam to combat MDR Pseudomonas aeruginosa” (Eur J Med Chem, 2023)
In brackets after ≈: the same amount, converted by molar mass. Activity calls are given as the source filed them. The rule behind the calls is not given here.

Experiments:
[1] = test system: Pseudomonas aeruginosa; test: Antibacterial activity against Pseudomonas aeruginosa 23-Y122 assessed as inhibition of bacterial growth incubated for 18 hrs by agar dilution method; format: functional
[2] = test system: Pseudomonas aeruginosa; test: Antibacterial activity against Pseudomonas aeruginosa 23-Y417 assessed as inhibition of bacterial growth incubated for 18 hrs by agar dilution method; format: functional; settings: read-out: MIC
[3] = test system: Pseudomonas aeruginosa; test: Antibacterial activity against Pseudomonas aeruginosa 12-1 assessed as inhibition of bacterial growth incubated for 18 hrs by agar dilution method; format: functional
[4] = test system: Pseudomonas aeruginosa; test: Antibacterial activity against Pseudomonas aeruginosa 21-8 assessed as inhibition of bacterial growth incubated for 18 hrs by agar dilution method; format: functional
[5] = test system: Pseudomonas aeruginosa; test: Antibacterial activity against Pseudomonas aeruginosa 13-17 assessed as inhibition of bacterial growth incubated for 18 hrs by agar dilution method; format: functional
[6] = test system: Pseudomonas aeruginosa; test: Antibacterial activity against Pseudomonas aeruginosa 23-Y539 assessed as inhibition of bacterial growth incubated for 18 hrs by agar dilution method; format: functional
[7] = test system: Pseudomonas aeruginosa; test: Antibacterial activity against Pseudomonas aeruginosa 23-Y372 assessed as inhibition of bacterial growth incubated for 18 hrs by agar dilution method; format: functional
[8] = test system: Pseudomonas aeruginosa; test: Antibacterial activity against Pseudomonas aeruginosa 23-Y364 assessed as inhibition of bacterial growth incubated for 18 hrs by agar dilution method; format: functional
[9] = test system: Pseudomonas aeruginosa; test: Antibacterial activity against Pseudomonas aeruginosa 19-46 assessed as inhibition of bacterial growth incubated for 18 hrs by agar dilution method; format: functional
[10] = test system: Pseudomonas aeruginosa; test: Antibacterial activity against Pseudomonas aeruginosa 21-7 assessed as inhibition of bacterial growth incubated for 18 hrs by agar dilution method; format: functional
[11] = test system: Pseudomonas aeruginosa; test: Antibacterial activity against Pseudomonas aeruginosa 16-2 assessed as inhibition of bacterial growth incubated for 18 hrs by agar dilution method; format: functional
[12] = test system: Pseudomonas aeruginosa; test: Antibacterial activity against Pseudomonas aeruginosa 19-55 assessed as inhibition of bacterial growth incubated for 18 hrs by agar dilution method; format: functional
[13] = test system: Pseudomonas aeruginosa; test: Antibacterial activity against Pseudomonas aeruginosa 23-Y511 assessed as inhibition of bacterial growth incubated for 18 hrs by agar dilution method; format: functional
[14] = test system: Pseudomonas aeruginosa; test: Antibacterial activity against Pseudomonas aeruginosa 16-11 assessed as inhibition of bacterial growth incubated for 18 hrs by agar dilution method; format: functional
[15] = test system: Pseudomonas aeruginosa; test: Antibacterial activity against Pseudomonas aeruginosa 21-2 assessed as inhibition of bacterial growth incubated for 18 hrs by agar dilution method; format: functional
[16] = test system: Pseudomonas aeruginosa; test: Antibacterial activity against Pseudomonas aeruginosa 13-3 assessed as inhibition of bacterial growth incubated for 18 hrs by agar dilution method; format: functional
[17] = test system: Pseudomonas aeruginosa; test: Antibacterial activity against Pseudomonas aeruginosa PAO1 assessed as inhibition of bacterial growth incubated for 18 hrs by agar dilution method; format: functional
[18] = test system: Pseudomonas aeruginosa; test: Antibacterial activity against Pseudomonas aeruginosa 13-35 assessed as inhibition of bacterial growth incubated for 18 hrs by agar dilution method; format: functional
[19] = test system: Pseudomonas aeruginosa; test: Antibacterial activity against Pseudomonas aeruginosa PAO1 in CAMH broth medium supplemented with 0.41 to 0.51 mM Mg2+ by checkerboard assay; format: functional
[20] = test system: Escherichia coli; test: Antibacterial activity against mcr-1 (+) Escherichia coli 08-85 assessed as inhibition of bacterial growth incubated for 18 hrs by agar dilution method; format: functional
[21] = test system: Escherichia coli; test: Antibacterial activity against NDM-1 (+) Escherichia coli CDC 1001728 assessed as inhibition of bacterial growth incubated for 18 hrs by agar dilution method; format: functional
[22] = test system: Pseudomonas aeruginosa; test: Antibacterial activity against Pseudomonas aeruginosa 13-35 in CAMH broth medium supplemented with 0.41 to 0.51 mM Mg2+ by checkerboard assay; format: functional
[23] = test system: Klebsiella pneumoniae; test: Antibacterial activity against NDM-1 (+) Klebsiella pneumoniae 2146 assessed as inhibition of bacterial growth incubated for 18 hrs by agar dilution method; format: functional
[24] = test system: Pseudomonas aeruginosa; test: Antibacterial activity against Pseudomonas aeruginosa PAO1 at 2 ug/ml measured upto 24 hrs by time-kill assay; format: functional, organism-based; settings: dose 2.0 µg/ml
[25] = test system: Pseudomonas aeruginosa; test: Antibacterial activity against Pseudomonas aeruginosa 12-1 in CAMH broth medium supplemented with 20.99 to 21.09 mM Mg2+ by checkerboard assay; format: functional
[26] = test system: Escherichia coli; test: Antibacterial activity against ESBLs (+) Escherichia coli 16-1 assessed as inhibition of bacterial growth incubated for 18 hrs by agar dilution method; format: functional
[27] = test system: Klebsiella pneumoniae; test: Antibacterial activity against ESBLs (+) Klebsiella pneumoniae ATCC 700603 assessed as inhibition of bacterial growth incubated for 18 hrs by agar dilution method; format: functional
[28] = test system: Pseudomonas aeruginosa; test: Antibacterial activity against Pseudomonas aeruginosa 12-1 in CAMH broth medium supplemented with 0.41 to 0.51 mM Mg2+ by checkerboard assay; format: functional
[29] = test system: Pseudomonas aeruginosa; test: Antibacterial activity against Pseudomonas aeruginosa PAO1 infected in Galleria mellonella assessed as increase in larvae survival at 25 mg/kg measured every 12 hrs; format: functional, organism-based
[30] = test system: Escherichia coli; test: Antibacterial activity against ESBLs (-) Escherichia coli ATCC 25922 assessed as inhibition of bacterial growth incubated for 18 hrs by agar dilution method; format: functional
[31] = test system: Pseudomonas aeruginosa; test: Antibacterial activity against Pseudomonas aeruginosa PAO1 in CAMH broth medium supplemented with 20.99 to 21.09 mM Mg2+ by checkerboard assay; format: functional
[32] = test system: Pseudomonas aeruginosa; test: Antibacterial activity against BL (+) Pseudomonas aeruginosa ATCC 27853 assessed as inhibition of bacterial growth incubated for 18 hrs by agar dilution method; format: functional
[33] = test system: Pseudomonas aeruginosa; test: Antibacterial activity against Pseudomonas aeruginosa 16-11 in CAMH broth medium supplemented with 20.99 to 21.09 mM Mg2+ by checkerboard assay; format: functional
[34] = test system: Klebsiella pneumoniae; test: Antibacterial activity against ESBLs (+) Klebsiella pneumoniae 16-14 assessed as inhibition of bacterial growth incubated for 18 hrs by agar dilution method; format: functional
[35] = test system: Klebsiella pneumoniae; test: Antibacterial activity against NDM-1 (+) Klebsiella pneumoniae 09-20 assessed as inhibition of bacterial growth incubated for 18 hrs by agar dilution method; format: functional
[36] = test system: Pseudomonas aeruginosa; test: Antibacterial activity against Pseudomonas aeruginosa 16-2 infected in Galleria mellonella assessed as larvae survival rate at 50 mg/kg after 96 hrs of innoculation; format: functional
[37] = test system: Pseudomonas aeruginosa; test: Antibacterial activity against Pseudomonas aeruginosa 16-11 in CAMH broth medium supplemented with 0.41 to 0.51 mM Mg2+ by checkerboard assay; format: functional
[38] = test system: Pseudomonas aeruginosa; test: Antibacterial activity against Pseudomonas aeruginosa 16-2 at 16 ug/ml measured upto 24 hrs by time-kill assay; format: functional, organism-based; settings: dose 16.0 µg/ml
[39] = test system: Pseudomonas aeruginosa; test: Antibacterial activity against Pseudomonas aeruginosa 13-35 in CAMH broth medium supplemented with 20.99 to 21.09 mM Mg2+ by checkerboard assay; format: functional

SMILES: C[C@@H](O)[C@H]1C(=O)N2C(C(=O)O)=C(S[C@@H]3CN[C@H](C(=O)N(C)C)C3)[C@H](C)[C@H]12 [MEROPENEM]
- MIC [1]: 128 µg/mL (≈ 334 µM)
- MIC [2]: 16 µg/mL (≈ 41.7 µM)
- MIC [3]: 16 µg/mL (≈ 41.7 µM)
- MIC [4]: 0.5 µg/mL (≈ 1.3 µM)
- MIC [5]: 32 µg/mL (≈ 83.4 µM)
- MIC [6]: 1 µg/mL (≈ 2.61 µM)
- MIC [7]: > 256 µg/mL
- MIC [8]: 2 µg/mL (≈ 5.22 µM)
- MIC [9]: 128 µg/mL (≈ 334 µM)
- MIC [10]: 16 µg/mL (≈ 41.7 µM)
- MIC [11]: 16 µg/mL (≈ 41.7 µM)
- MIC [12]: 128 µg/mL (≈ 334 µM)
- MIC [13]: 0.125 µg/mL (≈ 0.326 µM)
- MIC [14]: 1 µg/mL (≈ 2.61 µM)
- MIC [15]: 16 µg/mL (≈ 41.7 µM)
- MIC [16]: 32 µg/mL (≈ 83.4 µM)
- MIC [17]: 2 µg/mL (≈ 5.22 µM)
- MIC [18]: 32 µg/mL (≈ 83.4 µM)

SMILES: C[C@@H](O)[C@H]1C(=O)N2C(C(=O)O)=C(SCCNC=N)C[C@H]12 [IMIPENEM ANHYDROUS]
- MIC [1]: 4 µg/mL (≈ 13.4 µM)
- MIC [2]: 16 µg/mL (≈ 53.4 µM)
- MIC [3]: 64 µg/mL (≈ 214 µM)
- MIC [4]: 1 µg/mL (≈ 3.34 µM)
- MIC [5]: 32 µg/mL (≈ 107 µM)
- MIC [6]: 8 µg/mL (≈ 26.7 µM)
- MIC [7]: 128 µg/mL (≈ 428 µM)
- MIC [8]: 16 µg/mL (≈ 53.4 µM)
- MIC [9]: 32 µg/mL (≈ 107 µM)
- MIC [10]: 16 µg/mL (≈ 53.4 µM)
- MIC [11]: 32 µg/mL (≈ 107 µM)
- MIC [12]: 32 µg/mL (≈ 107 µM)
- MIC [13]: 0.5 µg/mL (≈ 1.67 µM)
- MIC [14]: 1 µg/mL (≈ 3.34 µM)
- MIC [15]: 16 µg/mL (≈ 53.4 µM)
- MIC [16]: 64 µg/mL (≈ 214 µM)
- MIC [17]: 8 µg/mL (≈ 26.7 µM)
- MIC [18]: 32 µg/mL (≈ 107 µM)

SMILES: CC(C)(O/N=C(\C(=O)N[C@@H]1C(=O)N2C(C(=O)[O-])=C(C[n+]3ccccc3)CS[C@H]12)c1csc(N)n1)C(=O)O [CEFTAZIDIME]
- MIC [1]: 256 µg/mL (≈ 468 µM)
- MIC [2]: 4 µg/mL (≈ 7.32 µM)
- MIC [3]: 64 µg/mL (≈ 117 µM)
- MIC [4]: 1 µg/mL (≈ 1.83 µM)
- MIC [5]: 64 µg/mL (≈ 117 µM)
- MIC [6]: 32 µg/mL (≈ 58.5 µM)
- MIC [7]: > 256 µg/mL
- MIC [8]: 64 µg/mL (≈ 117 µM)
- MIC [9]: 128 µg/mL (≈ 234 µM)
- MIC [10]: > 256 µg/mL
- MIC [11]: 128 µg/mL (≈ 234 µM)
- MIC [12]: 128 µg/mL (≈ 234 µM)
- MIC [13]: 1 µg/mL (≈ 1.83 µM)
- MIC [14]: > 256 µg/mL
- MIC [15]: 64 µg/mL (≈ 117 µM)
- MIC [16]: 64 µg/mL (≈ 117 µM)
- MIC [17]: 2 µg/mL (≈ 3.66 µM)
- MIC [18]: 16 µg/mL (≈ 29.3 µM)

SMILES: C[C@H]1[C@H](NC(=O)/C(=N\OC(C)(C)C(=O)O)c2csc(N)n2)C(=O)N1S(=O)(=O)O [AZTREONAM]
- MIC [19]: 8 µg/mL
- MIC [20]: 4 µg/mL (≈ 9.19 µM)
- MIC [21]: 4 µg/mL (≈ 9.19 µM)
- MIC [1]: 32 µg/mL (≈ 73.5 µM)
- MIC [3]: 64 µg/mL (≈ 147 µM)
- MIC [22]: 32 µg/mL
- MIC [5]: 64 µg/mL (≈ 147 µM)
- MIC [23]: > 128 µg/mL
- MIC [6]: 64 µg/mL (≈ 147 µM)
- MIC [7]: 32 µg/mL (≈ 73.5 µM)
- MIC [8]: > 256 µg/mL
- MIC [9]: 128 µg/mL (≈ 294 µM)
- MIC [10]: > 256 µg/mL
- Activity [24]: inactive
- MIC [25]: 64 µg/mL
- MIC [26]: ≤ 0.03 µg/mL
- MIC [27]: 32 µg/mL (≈ 73.5 µM)
- MIC [28]: 64 µg/mL
- Activity [29]: inactive
- MIC [12]: 128 µg/mL (≈ 294 µM)
- MIC [30]: 0.06 µg/mL (≈ 0.138 µM)
- MIC [31]: 8 µg/mL
- MIC [13]: 32 µg/mL (≈ 73.5 µM)
- MIC [14]: 8 µg/mL (≈ 18.4 µM)
- MIC [15]: 64 µg/mL (≈ 147 µM)
- MIC [16]: 64 µg/mL (≈ 147 µM)
- MIC [32]: 4 µg/mL (≈ 9.19 µM)
- MIC [33]: 8 µg/mL
- MIC [34]: 4 µg/mL (≈ 9.19 µM)
- MIC [17]: 8 µg/mL (≈ 18.4 µM)
- MIC [35]: 0.25 µg/mL (≈ 0.574 µM)
- Activity [36]: 30%
- MIC [37]: 8 µg/mL
- Activity [38]: inactive
- MIC [39]: 32 µg/mL
- MIC [18]: 32 µg/mL (≈ 73.5 µM)
